“Also recorded” adds a separate entry of the source.
Key:
HEK293 cells [1] = experiment: General transfection efficiency by imaging EGFP positive cells; type: cell-based; conditions: for transfection efficiency / EGFP expression: inhibitor 4 h post transfection
AAV2 and AAV8 vector = experiment: Vector production in HEK293 cells with chemical inhibitors, DRP by qPCR, serotype not separated; type: cell-based, adeno-associated virus
Description: (§1) Inhibitor-containing media was added to wells and transfection mixtures containing either AAV2 (light bars) or AAV8 (dark bars) production plasmids were added dropwise on top, and vector harvested 48 h later (FIG. 8A). […] To examine whether any of these were not directly inhibiting capsid assembly but rather a result of poor transfection efficiency, an upstream but important factor for vector production, the experiment was repeated adding inhibitors 4 h after transfection mixture was added to allow transfection steps to initiate (FIG. 8B).

AAV8 = AAV8 vector production in HEK293 cells with chemical inhibitors, DRP by qPCR; type: cell-based, adeno-associated virus
Description: as §1

HEK293 cells [2] = experiment: Cell viability by ATP levels (Cell Titer Glo); type: cell-based; conditions: 48 h
AAV2 = AAV2 vector production in HEK293 cells with chemical inhibitors, DRP by qPCR; type: cell-based, adeno-associated virus
Description: as §1

HEK293 cells [3] = conditions: 270 uM; 48 h
Description: General transfection efficiency was assessed visually by imaging EGFP positive cells (EGFP is present in the ITR-flanked transgene plasmid), and cell health was assessed visually by brightfield imaging and quantitatively by ATP levels in drug treated wells (light shading, FIG. 8B).
In these experiments, production plasmids were transfected into HEK293 cells and the appropriate inhibitor was serial diluted and added 4 h later at the concentrations indicated along the x-axis. The inhibitor was added at the same concentrations to a parallel plate and ATP levels were quantified by Cell Titer Glo® to assess cell viability after 48 h of incubation. General transfection efficiency (EGFP; present on ITR-flanked transgene plasmid) and cell morphology (Brightfield), at concentrations listed along the x-axis, were assessed by microscopy at 48 h, immediately before vector harvest from the same well.

AAV = conditions: cited from earlier work
[4] = tested on: PEI-mediated transfection of plasmid DNA; conditions: cited from earlier work
VP proteins = conditions: cited from earlier work
[5] = inhibitor added 4 h after transfection, harvest 48 h
[6] = higher concentrations, particularly 90-270 uM, 4 h post transfection
[7] = inhibitor added immediately before transfection, harvest 48 h
[8] = 6.25 μM, inhibitor added 4 h after transfection

Compound: NS(=O)(=O)OC[C@H]1C[C@@H](Nc2ncncc2C(=O)c2ccn(Cc3cccc(Br)c3)n2)C[C@@H]1O [ML-792]
- transfection efficiency / EGFP expression (HEK293 cells [1]; 48 h): dramatic loss

Compound: O=[N+]([O-])c1ccc(F)c([N+](=O)[O-])c1 [FDNB]
- per cell vector production (GC per living cell) (AAV2 and AAV8 vector; 4 h post transfection, likely artefact of ATP-based viable cell count): increase

Compound: apoptazole
- vector titer (AAV2 and AAV8 vector; [5]): strong dose dependent decrease
- vector production (GC per living cell as percentage of DMSO control) (AAV8; AAV8, lowest level reached, inhibitor 4 h post transfection): 5%
- cell death as assayed by ATP abundance (HEK293 cells [2]; 300 uM): did not show appreciable cell death
- expression of EGFP (HEK293 cells [1]; 300 uM, 48 h): robust expression of EGFP
- transfection efficiency / EGFP expression (HEK293 cells [1]; 48 h): no apparent loss

Compound: NS(=O)(=O)c1ccc(N/N=C2\C(=O)Nc3ccc(Br)cc32)cc1 [Cdk2 inhibitor II]
- AAV8 production (AAV8; [6]): dose-dependent effect
- decrease in AAV8 titer (AAV8; higher concentrations, 4 h post transfection): ~10 fold
- AAV2 production (AAV2; [6]): dose-dependent effect
- cell viability (as assayed by ATP) (HEK293 cells [2]; 90-270 uM): without affecting cell viability
- gross transfection efficiency (by EGFP visualization) (HEK293 cells [1]; 90-270 uM, 48 h): without affecting
- cell morphology (HEK293 cells [3]): affected

Compound: CO/C1=C\C(C)=C\[C@@H](C)[C@@H](O)[C@@H](C)C/C(C)=C/C=C/[C@H](OC)[C@@H]([C@@H](C)[C@@H](O)[C@H](C)[C@@]2(O)C[C@@H](O)[C@H](C)[C@@H](C(C)C)O2)OC1=O [Bafilomycin A1]
- reduction in vector titer (AAV2 and AAV8 vector; added 4 h post transfection at low doses): 10 fold
- vector production (AAV2 and AAV8 vector; inhibitor added immediately before transfection, all doses, harvest 48 h): abolished vector production to background levels
- vector titer (AAV2 and AAV8 vector; [7]): abolished vector production
- transfection efficiency (HEK293 cells [1]; low doses, added 4 h post transfection): no visibly appreciable effect
- AAV infection (AAV): blocks AAV infection
- PEI-mediated transfection of plasmid DNA [4]: blocks PEI-mediated transfection of plasmid DNA
- VP protein in the absence of AAP (VP proteins): rescue VP protein; also recorded: rescues degradation of some serotype's VP proteins

Compound: Cc1ccc2nc(CN(CCN(Cc3nc4ccc(C)cc4[nH]3)Cc3nc4ccc(C)cc4[nH]3)Cc3nc4ccc(C)cc4[nH]3)[nH]c2c1 [NSC348884]
- vector titer (AAV2 and AAV8 vector; [5]): not seen
- vector titer (AAV2 and AAV8 vector; [7]): large effect

Compound: O=C1NC(=NCc2cccs2)S/C1=C\c1ccc2ncccc2c1 [Cdk1 inhibitor IV]
- vector titer (AAV2 and AAV8 vector; [5]): did not affect vector titer without concomitant decreases in both cell health and transfection efficiency
- AAV8 titer (AAV8; [8]): appreciable decrease
- AAV2 production (AAV2; [8]): no effect
- cell viability (HEK293 cells [2]; 6.25 μM, added 4 h after transfection): without affecting cell viability

Reference: US12606802B2, “Methods and compositions for improving the assembly of adeno-associated viruses (AAVs)” (priority 2019, dated 2026)
